Source: patent US12173309B2, “Compounds for increasing genome editing efficiency” (Max-Planck-Gesellschaft zur Förderung der Wissenschaften …, priority 2017, dated 2024)
“Also recorded” adds a separate entry of the source.

Columns and labels:
[1] = test system: 409-B2 iCRISPR-Cas9 iPSCs; assay: PGE efficiency with iCRISPR Cas9 and ssODN donors; format: cell-based, human; details: 0.01 μM TSA, 0.5 μM MLN4924, 1 μM NSC 19630, 20 μM AICAR, 1 μM RS-1, 1 μM Resveratrol, 1 μM SCR7, 5 μM L755507, 5 μM STL127685, 20 μM B02
Procedure: (§1) FIG. 1: Genome editing and analysis flowchart. iCRISPR 409-B2 iPSCs are treated with 2 μg/ml doxycycline at least for 2 days to induce Cas9 or Cas9D10A expression. Reverse transfection with RNAiMAX, gRNA (7.5 nM each), ssODN (10 nM) and the small molecules to be evaluated is carried out in a 96 well plate for 1 day. The amount of cells used gives ˜80% confluency. Cells are then expanded for 3 days with regular media change. After harvest follows DNA extraction, PCR amplification of targeted loci, Illumina sequencing and CRISPResso (Pinello et al. 2016) sequence analysis for amount of indels and precise genome editing.
(§2) Cells were incubated with media containing 2 μg/ml doxycycline (Clontech, 631311) 2 days prior to lipofection. Lipofection (reverse transfection) was done using the alt-CRISPR manufacturer's protocol (IDT) with a final concentration of 7.5 nM of each gRNA and 10 nM of the respective ssODN. In brief, 0.75 μl RNAiMAX (Invitrogen, 13778075) and the respective oligonucleotides were separately diluted in 25 μl OPTI-MEM (Gibco, 1985-062) each and incubated at room temperature for 5 min. Both dilutions were mixed to yield 50 μl of OPTI-MEM including RNAiMAX, gRNAs and ssODNs. The lipofection mix was incubated for 20-30 min at room temperature. During incubation cells were dissociated using EDTA for 5 min and counted using the Countess Automated Cell Counter (Invitrogen). The lipofection mix, 100 μl containing 25.000 dissociated cells in mTeSR1 supplemented with Y-27632, 2 μg/ml doxycycline and the respective small molecule(s) to be tested were throughoutly mixed and put in one well of a 96 well covered with Matrigel Matrix (Corning, 35248). Media was exchanged to regular mTeSR1 media after 24 hours.
(§3) Three days after lipofection cells were dissociated using Accutase (SIGMA, A6964), pelleted, and resuspended in 15 μl QuickExtract (Epicentre, QE0905T). Incubation at 65° C. for 10 min, 68° C. for 5 min and finally 98° C. for 5 min was performed to yield ssDNA as a PCR template. Primers for each targeted loci of CALD1, KATNA1 and SLITRK1 containing adapters for Illumina sequencing were ordered from IDT (Coralville, USA). PCR was done in a T100 Thermal Cycler (Bio-Rad) using the KAPA2G Robust PCR Kit (Peqlab, 07-KK5532-03) with supplied buffer B and 3 μl of cell extract in a total volume of 25 μl. The thermal cycling profile of the PCR was: 95° C. 3 min; 34×(95° 15 sec, 65° C. 15 sec, 72° C. 15 sec); 72° C. 60 sec. P5 and P7 Illumina adapters with sample specific indices were added in a second PCR reaction (Kircher et al. 2012) using Phusion HF MasterMix (Thermo Scientific, F-531L) and 0.3 μl of the first PCR product. The thermal cycling profile of the PCR was: 98° C. 30 sec; 25× (98° 10 sec, 58° C. 10 sec, 72° C. 20 sec); 72° C. 5 min. Amplifications were verified by size separating agarose gel electrophoresis using EX gels (Invitrogen, G4010-11). The indexed amplicons were purified using Solid Phase Reversible Immobilization (SPRI) beads (Meyer, Kircher 2010). Double-indexed libraries were sequenced on a MiSeq (Illumina) giving paired-end sequences of 2×150 bp. After base calling using Bustard (Illumina) adapters were trimmed using leeHom (Renaud et al. 2014).
(§4) CRISPresso (Pinello et al. 2016) was used to analyse sequencing data from CRISPR genome editing experiments for percentage of wildtype, targeted nucleotide substitutions (TNS), indels and mix of TNS and indels. Parameters used for analysis were ‘-w 20’, ‘--min_identity_score 70’ and ‘--ignore_substitutions’ (analysis was restricted to amplicons with a minimum of 70% similarity to the wildtype sequence and to a window of 20 bp from each gRNA; substitutions were ignored, as sequencing errors would be falsely characterized as NHEJ-events). Sequencing data from colonies after single cell seeding (FIGS. 3B and C) was further analyzed by evaluating the actual read sequences using SAMtools. Clonal colonies were differentiated from mixed colonies using sequence read proportions. […]

[2] = test system: 409-B2 iCRISPR-Cas9D10A iPSCs; assay: Precise genome editing (PGE) efficiency with iCRISPR Cas9D10A double nicking and ssODN donors, Illumina sequencing/CRISPResso; format: cell-based, human; details: for effect on PGE frequency over CALD1, KATNA1 and SLITRK1 compared to controls: 1 μM NSC 19630, 20 μM AICAR, 1 μM RS-1, 1 μM Resveratrol, 1 μM SCR7, 5 μM L755507, 5 μM STL127685, 20 μM B02; for effect on PGE of further addition to the mix of NU7026, TSA and MLN4924: all loci, 5 μM NSC 15520, then 1 μM NSC 19630, 20 μM AICAR, 1 μM RS-1 (FIG. 5A); for effect on PGE efficiency with ssODN (discussion summary): nuclease not stated; for PGE increase (mean change vs control): 20 μM NU7026, 0.01 μM TSA, 0.5 μM MLN4924, 5 μM NSC 15520, CRISPY mix = all four
Procedure: as §1, §2, §3, §4

[3] = test system: HEK293A cells; details: literature; RS-1 with dsODN donors, control 3.5%; cited from earlier work
[4] = test system: mouse ESCs; details: literature; dsODN donors, control 17.7%; cited from earlier work
[5] = test system: porcine fetal fibroblasts; details: literature; ssODN donors; cited from earlier work
[6] = test system: U2OS cells; details: literature; dsODN donors, control 1.9%; cited from earlier work
[7] = test system: rabbit embryos; details: literature; RS-1 with dsODN donors, control 4.4%; cited from earlier work
[8] = test system: human stem cells; details: literature; cited from earlier work
[9] = target: human LIG4 (Homo sapiens, UniProt P49917); details: literature (Greco et al. 2016); cited from earlier work
[10] = test system: 409-B2 iCRISPR Cas9D10A iPSCs; assay: Cell death by phase contrast light microscopy in first concentration screen; format: cell-based, human
Excerpt: FIGS. 3A-3D: First screen for solvent effect and influence of different small molecule concentrations on genome edit-ing of CALD1, KATNA1 and SLITRK1 with iCRISPR Cas9D10A. Shown are precise genome editing (PGE) and indels with green circles (triangles) or blue diamonds, respectively. Each symbol represents a technical replicate. The respective means are shown as a black line. Each skull indicates cell death of up to 20% determined by phase contrast light microscopy.

Chain of human LIG4 (P49917 whole entry): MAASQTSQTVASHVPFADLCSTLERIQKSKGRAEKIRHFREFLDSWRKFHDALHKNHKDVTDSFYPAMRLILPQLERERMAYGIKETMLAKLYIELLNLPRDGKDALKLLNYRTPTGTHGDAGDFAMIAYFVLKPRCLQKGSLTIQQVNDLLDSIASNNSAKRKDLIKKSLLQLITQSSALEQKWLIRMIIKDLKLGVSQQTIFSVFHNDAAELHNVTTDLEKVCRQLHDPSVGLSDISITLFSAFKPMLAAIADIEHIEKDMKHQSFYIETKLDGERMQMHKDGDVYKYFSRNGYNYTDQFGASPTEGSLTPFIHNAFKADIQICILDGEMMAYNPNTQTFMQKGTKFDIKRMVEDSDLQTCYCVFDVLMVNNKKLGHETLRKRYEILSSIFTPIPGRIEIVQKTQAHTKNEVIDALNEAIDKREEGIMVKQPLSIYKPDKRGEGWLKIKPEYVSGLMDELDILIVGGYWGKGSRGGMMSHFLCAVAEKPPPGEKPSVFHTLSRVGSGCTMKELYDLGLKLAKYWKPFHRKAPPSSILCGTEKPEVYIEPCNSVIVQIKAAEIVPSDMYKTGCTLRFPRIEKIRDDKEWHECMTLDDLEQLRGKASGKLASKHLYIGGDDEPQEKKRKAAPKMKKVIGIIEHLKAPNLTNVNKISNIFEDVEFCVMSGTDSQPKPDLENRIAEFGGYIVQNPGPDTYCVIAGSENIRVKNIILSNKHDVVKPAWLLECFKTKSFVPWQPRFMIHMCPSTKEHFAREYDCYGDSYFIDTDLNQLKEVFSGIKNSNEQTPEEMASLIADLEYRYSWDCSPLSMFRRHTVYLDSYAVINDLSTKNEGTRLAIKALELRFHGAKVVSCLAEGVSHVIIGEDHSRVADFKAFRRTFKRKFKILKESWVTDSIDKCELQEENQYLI
Chain of human LIG4 (Q13426 whole entry partner): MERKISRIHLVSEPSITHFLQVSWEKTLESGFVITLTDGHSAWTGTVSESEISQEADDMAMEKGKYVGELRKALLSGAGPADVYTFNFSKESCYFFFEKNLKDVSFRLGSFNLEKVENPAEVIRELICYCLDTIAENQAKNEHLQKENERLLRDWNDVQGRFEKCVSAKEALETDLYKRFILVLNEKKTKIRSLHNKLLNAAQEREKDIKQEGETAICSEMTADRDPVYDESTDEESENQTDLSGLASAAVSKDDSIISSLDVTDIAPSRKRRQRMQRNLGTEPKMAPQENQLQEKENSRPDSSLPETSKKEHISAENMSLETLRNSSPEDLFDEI

Row | SMILES | effect on PGE frequency over CALD1, KATNA1 and SLITRK1 compared to controls [1] | effect on PGE frequency over CALD1, KATNA1 and SLITRK1 compared to controls ([2]; Cas9D10A) | effect on PGE efficiency with ssODN (discussion summary) [2] | PGE [3] | further results
1 | NC(=O)c1ncn([C@@H]2O[C@H](CO)[C@@H](O)[C@H]2O)c1N [AICAR] | no effect or a diminishing effect | no clear effect | no effect | – | effect on PGE of further addition to the mix of NU7026, TSA and MLN4924 ([2]; Cas9D10A): no measurable effect
2 | O=c1c2ccccc2nc(/C=C/c2cccnc2)n1Cc1ccccc1 [B02] | halved | halved | halved | – | –
3 | CCCCCCNC(=O)Nc1ccc(S(=O)(=O)Nc2ccc(CCNC[C@H](O)COc3ccc(O)cc3)cc2)cc1 [L755507] | no effect or a diminishing effect; also recorded: no clear effect | no clear effect | – | did not find significant stimulation | PGE [4]: 33.3%
4 | O=C(Nc1ccc(Br)cc1)c1ccc(Br)c(S(=O)(=O)NCc2ccccc2)c1 [RS-1] | no effect or a diminishing effect; also recorded: no clear effect | no clear effect | no beneficial effect | 21% | effect on PGE efficiency [5]: No effect; effect on PGE of further addition to the mix of NU7026, TSA and MLN4924 ([2]; Cas9D10A): no measurable effect; PGE [6]: 2.4%; PGE [7]: 26.1%
5 | Oc1ccc(C=Cc2cc(O)cc(O)c2)cc1 [Resveratrol] | no effect or a diminishing effect | no clear effect | – | – | –
6 | O=c1[nH]c(=S)[nH]c(N=Cc2ccccc2)c1N=Cc1ccccc1 [SCR7] | no effect or a diminishing effect; also recorded: no clear effect | no clear effect | – | marginal but significant increase | effect on PGE [8]: no significant effect; inhibition of human LIG4 [9]: neither selective nor potent; PGE [7]: no significant effect
7 | CC(/C=C/C(=O)NO)=C\[C@@H](C)C(=O)c1ccc(N(C)C)cc1 [TSA, Trichostatin A] | no enhancing effect | – | – | – | PGE increase (mean change vs control) ([2]; CALD1, Cas9D10A): 1.5 fold; higher PGE frequency than without the molecules ([2]; Cas9D10A, pooled across CALD1, KATNA1, SLITRK1 (FIG. 5A), p<0.001): 1.8 fold; PGE increase (mean change vs control) ([2]; KATNA1, Cas9D10A): 2.2 fold; PGE increase (mean change vs control) ([2]; SLITRK1, Cas9D10A): 1.8 fold; cell death ([10]; 0.1 μM): All cells died; cell death ([10]; 1 μM): All cells died
